Measurements published in ChEMBL document CHEMBL5143688, “A kind of HIV-1 protease inhibitors containing phenols with antiviral activity against DRV-resistant variants” (Bioorg Med Chem, 2022).

target: Human immunodeficiency virus type 1 protease (Human immunodeficiency virus 1, UniProt Q72874); test: Inhibition of HIV1 protease expressed in Escherichia coli using Arg-Glu (EDANS)-Ser-Gln-Asn-Tyr-Pro-Ile-Val-Gln-Lys(DABCYL)-Arg as substrate preincubated for 20 to 30 mins followed by substrate addition and measured for 10 mins by FRET assay; details: not given

Point of comparison: `CC(C)CN(C[C@@H](O)[C@H](Cc1ccccc1)NC(=O)c1ccccc1O)S(=O)(=O)c1ccc(F)cc1`, IC50 2.04 nM. Against it:
- CC(C)CN(C[C@@H](O)[C@H](Cc1ccccc1)NC(=O)c1ccc(O)cc1O)S(=O)(=O)c1ccc(C(F)(F)F)cc1 — 4.3-fold higher, 8.82 nM
- CC(C)CN(C[C@@H](O)[C@H](Cc1ccccc1)NC(=O)c1ccccc1O)S(=O)(=O)c1ccc([N+](=O)[O-])cc1 — 6.5-fold higher, 13.3 nM
- COc1ccc(C(=O)N[C@@H](Cc2ccccc2)[C@H](O)CN(CC(C)C)S(=O)(=O)c2ccc(F)cc2)c(O)c1 — 4.1-fold higher, 8.34 nM
- CC(C)CN(C[C@@H](O)[C@H](Cc1ccccc1)NC(=O)c1cc(O)cc(O)c1)S(=O)(=O)c1ccc(C(F)(F)F)cc1 — 26-fold lower, 0.078 nM
- CC(C)CN(C[C@@H](O)[C@H](Cc1ccccc1)NC(=O)c1ccc(O)cc1O)S(=O)(=O)c1ccc([N+](=O)[O-])cc1 — within 1.5-fold, 2.42 nM
- COc1cc(O)c(C(=O)N[C@@H](Cc2ccccc2)[C@H](O)CN(CC(C)C)S(=O)(=O)c2ccc(C(F)(F)F)cc2)cc1OC — 5.6-fold higher, 11.4 nM
- COc1cc(O)c(C(=O)N[C@@H](Cc2ccccc2)[C@H](O)CN(CC(C)C)S(=O)(=O)c2ccc(F)cc2)cc1OC — 5.6-fold higher, 11.5 nM
- CC(C)CN(C[C@@H](O)[C@H](Cc1ccccc1)NC(=O)c1ccc(O)c(O)c1)S(=O)(=O)c1ccc([N+](=O)[O-])cc1 — 8.2-fold lower, 0.25 nM
- CC(C)CN(C[C@@H](O)[C@H](Cc1ccccc1)NC(=O)c1cc(O)c(O)c(O)c1)S(=O)(=O)c1ccc([N+](=O)[O-])cc1 — 2.8-fold lower, 0.73 nM
- COc1cc(C(=O)N[C@@H](Cc2ccccc2)[C@H](O)CN(CC(C)C)S(=O)(=O)c2ccc(C(F)(F)F)cc2)cc(OC)c1O — 4.1-fold higher, 8.27 nM
- CC(C)CN(C[C@@H](O)[C@H](Cc1ccccc1)NC(=O)c1ccc(Cl)cc1O)S(=O)(=O)c1ccc(C(F)(F)F)cc1 — 3.1-fold higher, 6.23 nM
- CC(C)CN(C[C@@H](O)[C@H](Cc1ccccc1)NC(=O)c1ccc(O)c(O)c1)S(=O)(=O)c1ccc(C(F)(F)F)cc1 — 26-fold lower, 0.077 nM
- COc1cc(O)c(C(=O)N[C@@H](Cc2ccccc2)[C@H](O)CN(CC(C)C)S(=O)(=O)c2ccc([N+](=O)[O-])cc2)cc1OC — 6.7-fold higher, 13.7 nM

test system: HIV1 protease; test: Selectivity index, ratio of CC50 for HEK293T cells to IC50 for inhibition of HIV1 protease expressed in Escherichia coli; assay type: toxicity; details: human, read-out: Ratio CC50/IC50

Point of comparison: `CC(C)CN(C[C@@H](O)[C@H](Cc1ccccc1)NC(=O)c1ccc(O)c(O)c1)S(=O)(=O)c1ccc(C(F)(F)F)cc1`, selectivity ratio 496000. Against it:
- CC(C)CN(C[C@@H](O)[C@H](Cc1ccccc1)NC(=O)c1cc(O)cc(O)c1)S(=O)(=O)c1ccc(C(F)(F)F)cc1 — higher, > 1.28e+06
- CC(C)CN(C[C@@H](O)[C@H](Cc1ccccc1)NC(=O)c1ccc(O)cc1O)S(=O)(=O)c1ccc([N+](=O)[O-])cc1 — not separable, > 41300
- CC(C)CN(C[C@@H](O)[C@H](Cc1ccccc1)NC(=O)c1ccccc1O)S(=O)(=O)c1ccc(F)cc1 — not separable, > 49000
- CC(C)CN(C[C@@H](O)[C@H](Cc1ccccc1)NC(=O)c1ccc(O)c(O)c1)S(=O)(=O)c1ccc([N+](=O)[O-])cc1 — lower, 142000
- CC(C)CN(C[C@@H](O)[C@H](Cc1ccccc1)NC(=O)c1cc(O)c(O)c(O)c1)S(=O)(=O)c1ccc([N+](=O)[O-])cc1 — not separable, > 137000

test system: not listed separately; test: Cytotoxicity against HEK293T cells assessed as reduction in cell viability measured after 24 hrs by CCK8 assay; assay type: toxicity, cell-based, HEK-293T; details: human

Point of comparison: `CC(C)CN(C[C@@H](O)[C@H](Cc1ccccc1)NC(=O)c1ccc(O)c(O)c1)S(=O)(=O)c1ccc([N+](=O)[O-])cc1`, CC50 at 24 h 35600 nM. Against it:
- CC(C)CN(C[C@@H](O)[C@H](Cc1ccccc1)NC(=O)c1cc(O)cc(O)c1)S(=O)(=O)c1ccc(C(F)(F)F)cc1 — higher, > 100000 nM
- CC(C)CN(C[C@@H](O)[C@H](Cc1ccccc1)NC(=O)c1ccc(O)cc1O)S(=O)(=O)c1ccc([N+](=O)[O-])cc1 — higher, > 100000 nM
- CC(C)CN(C[C@@H](O)[C@H](Cc1ccccc1)NC(=O)c1ccccc1O)S(=O)(=O)c1ccc(F)cc1 — higher, > 100000 nM
- CC(C)CN(C[C@@H](O)[C@H](Cc1ccccc1)NC(=O)c1cc(O)c(O)c(O)c1)S(=O)(=O)c1ccc([N+](=O)[O-])cc1 — higher, > 100000 nM
- CC(C)CN(C[C@@H](O)[C@H](Cc1ccccc1)NC(=O)c1ccc(O)c(O)c1)S(=O)(=O)c1ccc(C(F)(F)F)cc1 — within 1.5-fold, 38200 nM

test system: Human immunodeficiency virus 1; test: Antiviral activity against HIV1 NL4-3 VSV-G pseudotyped virus infected in human SUP-T1 cells assessed as inhibition of late stage viral production at 10 uM pretreated for 48 hrs followed by viral infection and measured after 48 hrs by luciferase assay relative to control; assay type: functional; details: Human immunodeficiency virus 1, NL4-3, SUP-T1, time 96 hrs

Point of comparison: `COc1ccc(C(=O)N[C@@H](Cc2ccccc2)[C@H](O)CN(CC(C)C)S(=O)(=O)c2ccc(F)cc2)c(O)c1`, inhibition at 10 µM 82.2%. Against it:
- CC(C)CN(C[C@@H](O)[C@H](Cc1ccccc1)NC(=O)c1ccccc1O)S(=O)(=O)c1ccc(F)cc1 — higher, 92.6%
